Laboratory results from patent US10800815B2, “Kv1.3 potassium channel antagonists” (cgtx-Peptide Development GmbH, priority 2014, dated 2020).
Like-named read-outs stand apart in the source and are kept apart here.

Tests used:
[1] = target: T1, Kv1.3 channels expressed in Sf21 insect cells (Homo sapiens, UniProt P22001); assay: Stability ex vivo in rat blood plasma, read out as IC50 on Kv1.3 (Example 3); assay type: in vitro ADME
T1 construct: expressed in transfected cells; host or cells: Sf21 insect cells, baculovirus infection
Experimental: The aim was to test the stability of the cgtx-544 peptide in blood plasma of mammals after different incubation times at room temperature (RT) and 37° C. Stability was defined as IC50 value of cgtx-544 after different incubation times at RT and 37° C. Blood plasma was prepared from fresh blood samples from healthy rats or humans. Heparin was added to fresh blood samples to prevent clogging. Plasma preparation was performed by centrifugation for 2 min at 2000×g at RT.
As the cgtx-544 peptide used in these experiments was incompletely folded, a higher IC50 than normal was determined.
To investigate the stability and activity in plasma the peptide was added to freshly prepared human and rat blood plasma at a final concentration of 2 μM. The samples were split into two aliquots and incubated at 37° C. and at room temperature (RT, 20° C.). For the electrophysiological analysis serial dilutions of the samples were prepared.

Kv1.1 = target: T2, Kv1.1 (Homo sapiens, UniProt Q09470); assay: Patch-clamp measurement of Kv1.1 channel inhibition (Example 1); assay type: cell-based; set-up: dose or concentration left out as unconfirmed
T2 construct: expressed in transfected cells; host or cells: Sf21 insect cells, baculovirus infection
Experimental: FIGS. 1A-1F Measurement of Kv1.3 (FIGS. 1B and 1E), Kv1.5 (FIGS. 1C and 1F) and Kv1.1 (FIGS. 1A and 1D) channel inhibition by patch-clamp.
Peptides were dissolved at 1 μg/μl in 20 mM NaPO4 buffer pH 8.2 (1 mg in 1 ml folding buffer) and dialysed against the same buffer 3×1 L, Float-a-Lyzer cut off 500 Da (Spectrapor) at room temperature.
HsTx 1 binding was tested at various concentrations of e.g. 100 pM, 1 nM, 10 nM, 50 nM, 100 nM, 500 nM, and 1 μM—depending on the tested channel. Representative measurements for Kv 1.1, Kv1.3 and Kv1.5 are depicted in FIGS. 1 a), 1 b), and 1 c) respectively.
Cgtx-544 binding was tested at various concentrations of e.g. 1 nM, 10 nM, 50 nM, 100 nM, 1 μM, and 5 μM—depending on the tested channel. Representative measurements for Kv1.1, Kv1.3 and Kv1.5 are depicted in FIGS. 1 d), 1e), and 1) f, respectively.

T1 sequence (P22001 whole entry): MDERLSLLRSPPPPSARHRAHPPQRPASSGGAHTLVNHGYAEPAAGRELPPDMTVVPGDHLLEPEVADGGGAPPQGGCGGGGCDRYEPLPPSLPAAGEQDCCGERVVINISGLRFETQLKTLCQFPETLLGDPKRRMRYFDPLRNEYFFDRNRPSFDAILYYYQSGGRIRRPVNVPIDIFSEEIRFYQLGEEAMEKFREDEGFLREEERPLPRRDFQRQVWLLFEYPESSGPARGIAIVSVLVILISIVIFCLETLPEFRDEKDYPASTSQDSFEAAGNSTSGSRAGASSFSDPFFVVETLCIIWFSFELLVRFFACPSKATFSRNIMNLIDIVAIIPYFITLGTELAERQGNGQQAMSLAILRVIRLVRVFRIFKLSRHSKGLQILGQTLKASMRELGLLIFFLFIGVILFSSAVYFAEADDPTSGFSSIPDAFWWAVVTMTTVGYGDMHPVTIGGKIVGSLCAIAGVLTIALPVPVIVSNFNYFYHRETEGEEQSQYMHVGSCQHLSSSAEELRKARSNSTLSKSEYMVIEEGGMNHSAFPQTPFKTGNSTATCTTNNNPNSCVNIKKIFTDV
T2 sequence (Q09470 whole entry): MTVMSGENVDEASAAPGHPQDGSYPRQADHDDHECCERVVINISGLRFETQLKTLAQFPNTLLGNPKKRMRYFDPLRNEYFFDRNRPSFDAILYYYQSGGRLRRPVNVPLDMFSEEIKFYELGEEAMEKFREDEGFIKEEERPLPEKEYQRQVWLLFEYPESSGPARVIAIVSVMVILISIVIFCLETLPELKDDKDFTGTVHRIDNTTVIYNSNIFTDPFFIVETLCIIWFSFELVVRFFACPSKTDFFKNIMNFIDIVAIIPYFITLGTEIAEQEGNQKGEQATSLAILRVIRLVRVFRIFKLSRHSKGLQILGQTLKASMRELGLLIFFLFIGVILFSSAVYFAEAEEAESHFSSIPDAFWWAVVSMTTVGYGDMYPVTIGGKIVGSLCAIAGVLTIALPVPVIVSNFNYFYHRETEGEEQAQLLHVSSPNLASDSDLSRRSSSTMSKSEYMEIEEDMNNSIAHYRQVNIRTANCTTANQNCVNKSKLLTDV

For `CC[C@H](C)[C@H](NC(=O)[C@@H](N)[C@@H](C)O)C(=O)N[C@H](C(=O)N[C@@H](CC(N)=O)C(=O)N[C@H](C(=O)N[C@@H](CCCCN)C(=O)N[C@H]1CSSC[C@@H]2NC(=O)[C@H](CCCCN)NC(=O)CNC(=O)[C@H](Cc3ccc(O)cc3)NC(=O)[C@@H]3CCCN3C(=O)[C@@H]3CSSC[C@@H](C(=O)O)NC(=O)[C@H](CCCNC(=N)N)NC(=O)[C@H](CC(N)=O)NC(=O)[C@@H]4CSSC[C@H](NC(=O)[C@@H]5CCCN5C(=O)[C@@H]5CCCN5C(=O)[C@H](CC(C)C)NC(=O)[C@H](CSSC[C@H](NC(=O)[C@H](CCCCN)NC(=O)[C@H](CCCNC(=N)N)NC(=O)[C@H](CC(N)=O)NC(=O)[C@H](CCSC)NC2=O)C(=O)N[C@@H](CCCCN)C(=O)N4)NC(=O)[C@H](CCC(N)=O)NC(=O)[C@H](CCCCN)NC(=O)[C@@H]2CCCN2C(=O)[C@H](CO)NC(=O)[C@H]([C@@H](C)O)NC1=O)C(=O)N[C@@H](CCCCN)C(=O)N[C@@H](C)C(=O)N[C@@H](CCC(N)=O)C(=O)N[C@@H]([C@@H](C)O)C(=O)NCC(=O)N3)C(C)C)[C@@H](C)CC` [Compound 7], the “significant change in activity” value ([1]; 24 h, 37° C. and RT) was “could not be detected”, the “activity after incubation in plasma” value ([1]; 48 h at RT) was “remained unchanged” and the “activity after incubation in plasma” value ([1]; 14 days at 37° C.) was “no activity was detected”. For the same molecule, the “activity after incubation in plasma” value ([1]; 14 days at RT) was “unchanged activity”, the IC50 ([1]; read-out: IC50 on Kv1.3 after incubation in plasma, 48 h at 37° C.) was 57.8 nM and the IC50 ([1]; read-out: IC50 on Kv1.3 in plasma, time point 0 h) was 15 nM. The “block of Kv1.1” value (Kv1.1) was “about 22%”.
